Laboratory results taken from PubChem BioAssay AID248 (DTP/NCI, 2004).
“And” between values parts separate entries of the source, which are not always exact repeats. Equal entries are not always repeated. Inconclusive results and toxic doses are left out.

Test system: L1210 leukemia ip in BDF1 mice, survival T/C
Assay: NCI In Vivo Anticancer Drug Screen. Data for tumor model L1210 Leukemia (intraperitoneal) in B6D2F1 (BDF1) mice
Conditions: endpoint: mean survival time, higher = longer survival
Procedure, shortened: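 Each compound was tested against a transplantable tumor grown in mice. The endpoint was survival, with treated animals benchmarked against vehicle controls as a simple ratio.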

[1] = dose: 100.0 mg/kg/injection, schedule: Q01DX001 (ip), vehicle: Klucel (hydroxypropylcellulose) (HPC)
[2] = dose: 100.0 mg/kg/injection, schedule: Q04DX002 (ip), vehicle: Klucel (hydroxypropylcellulose) (HPC)
[3] = dose: 200.0 mg/kg/injection, schedule: Q01DX001 (ip), vehicle: Klucel (hydroxypropylcellulose) (HPC)
[4] = dose: 400.0 mg/kg/injection, schedule: Q01DX001 (ip), vehicle: Klucel (hydroxypropylcellulose) (HPC)
[5] = dose: 100.0 mg/kg/injection, schedule: Q04DX003 (ip), vehicle: saline
[6] = dose: 200.0 mg/kg/injection, schedule: Q04DX003 (ip), vehicle: saline
[7] = dose: 100.0 mg/kg/injection, schedule: Q01DX009 (ip), vehicle: saline with Tween-80
[8] = dose: 200.0 mg/kg/injection, schedule: Q01DX009 (ip), vehicle: saline with Tween-80
[9] = dose: 400.0 mg/kg/injection, schedule: Q01DX009 (ip), vehicle: saline with Tween-80
[10] = dose: 100.0 mg/kg/injection, schedule: Q01DX009 (ip), vehicle: Klucel (hydroxypropylcellulose) (HPC)
[11] = dose: 100.0 mg/kg/injection, schedule: Q04DX003 (ip), vehicle: Klucel (hydroxypropylcellulose) (HPC)
[12] = dose: 200.0 mg/kg/injection, schedule: Q01DX009 (ip), vehicle: Klucel (hydroxypropylcellulose) (HPC)
[13] = dose: 200.0 mg/kg/injection, schedule: Q04DX003 (ip), vehicle: Klucel (hydroxypropylcellulose) (HPC)
[14] = dose: 400.0 mg/kg/injection, schedule: Q01DX009 (ip), vehicle: Klucel (hydroxypropylcellulose) (HPC)
[15] = dose: 100.0 mg/kg/injection, schedule: Q01DX001 (ip), vehicle: carboxymethylcellulose (CMC)
[16] = dose: 200.0 mg/kg/injection, schedule: Q01DX001 (ip), vehicle: carboxymethylcellulose (CMC)
[17] = dose: 100.0 mg/kg/injection, schedule: Q04DX002 (ip), vehicle: saline with Tween-80
[18] = dose: 200.0 mg/kg/injection, schedule: Q04DX002 (ip), vehicle: saline with Tween-80
[19] = dose: 400.0 mg/kg/injection, schedule: Q04DX002 (ip), vehicle: saline with Tween-80

CCCCNC(=O)C(=O)NCCCC
T/C [1]: 108 % of control
T/C (dose: 100.0 mg/kg/injection, schedule: Q01DX009 (ip), vehicle: other): 90 % of control
T/C [2]: 96 % of control
T/C [3]: 103 % of control
T/C (dose: 200.0 mg/kg/injection, schedule: Q01DX009 (ip), vehicle: other): 94 % of control
T/C (dose: 200.0 mg/kg/injection, schedule: Q04DX002 (ip), vehicle: Klucel (hydroxypropylcellulose) (HPC)): 96 % of control
T/C [4]: 97 % of control
T/C (dose: 400.0 mg/kg/injection, schedule: Q01DX009 (ip), vehicle: other): 95 % of control
T/C (dose: 400.0 mg/kg/injection, schedule: Q04DX002 (ip), vehicle: Klucel (hydroxypropylcellulose) (HPC)): 103 % of control

O=S(=O)(C1CC1c1ccccc1)N1CCCc2ccccc21 (configuration not stated)
T/C (dose: 100.0 mg/kg/injection, schedule: Q01DX001 (ip), vehicle: saline): 103 % of control
T/C [5]: 98 % of control
T/C (dose: 200.0 mg/kg/injection, schedule: Q01DX001 (ip), vehicle: saline): 103 % of control
T/C [6]: 98 % of control
T/C (dose: 400.0 mg/kg/injection, schedule: Q01DX001 (ip), vehicle: saline): 95 % of control
T/C (dose: 400.0 mg/kg/injection, schedule: Q04DX003 (ip), vehicle: saline): 104 % of control

CC(=O)N(C(C)=O)c1ccccc1
T/C [7]: 105 % of control
T/C [8]: 107 % of control
T/C [9]: 115 % of control

CCCC(C)OC(=O)Nc1cccc(OC(=O)NC)c1 (configuration not stated)
T/C (dose: 100.0 mg/kg/injection, schedule: Q04DX003 (ip), vehicle: saline with Tween-80): 102 % of control
T/C (dose: 200.0 mg/kg/injection, schedule: Q04DX003 (ip), vehicle: saline with Tween-80): 98 % of control
T/C (dose: 400.0 mg/kg/injection, schedule: Q04DX003 (ip), vehicle: saline with Tween-80): 101 % of control

COc1ccc(NC(=O)Nc2cccc(C)c2C)cc1
T/C (dose: 100.0 mg/kg/injection, schedule: Q01DX009 (ip), vehicle: gum acacia): 96 % of control
T/C (dose: 100.0 mg/kg/injection, schedule: Q04DX003 (ip), vehicle: gum acacia): 99 % of control
T/C (dose: 200.0 mg/kg/injection, schedule: Q01DX009 (ip), vehicle: gum acacia): 97 % of control
T/C (dose: 200.0 mg/kg/injection, schedule: Q04DX003 (ip), vehicle: gum acacia): 91 % of control
T/C (dose: 400.0 mg/kg/injection, schedule: Q01DX009 (ip), vehicle: gum acacia): 94 % of control
T/C (dose: 400.0 mg/kg/injection, schedule: Q04DX003 (ip), vehicle: gum acacia): 89 % of control

CCOC(=O)N1CCN(CCO)CC1
T/C [5]: 102 % of control
T/C [6]: 94 % of control

O=C(CCN1CC=C(c2ccccc2)CC1)c1ccc(N2CC=C(c3ccccc3)CC2)cc1
T/C (dose: 75.0 mg/kg/injection, schedule: Q04DX002 (ip), vehicle: saline with Tween-80): 100 % of control
T/C (dose: 150.0 mg/kg/injection, schedule: Q04DX002 (ip), vehicle: saline with Tween-80): 100 % of control
T/C (dose: 300.0 mg/kg/injection, schedule: Q04DX002 (ip), vehicle: saline with Tween-80): 107 % of control

CCCCNC(=O)Nc1ccc(OC)cc1
T/C [10]: 103 % of control
T/C [11]: 96 % of control
T/C [12]: 92 % of control
T/C [13]: 93 % of control
T/C [14]: 90 % of control
T/C (dose: 400.0 mg/kg/injection, schedule: Q04DX003 (ip), vehicle: Klucel (hydroxypropylcellulose) (HPC)): 102 % of control

Cc1cc(C)c2c(c1)CC2N (configuration not stated)
T/C (dose: 25.0 mg/kg/injection, schedule: Q04DX002 (ip), vehicle: Klucel (hydroxypropylcellulose) (HPC)): 95 % of control
T/C (dose: 50.0 mg/kg/injection, schedule: Q04DX002 (ip), vehicle: Klucel (hydroxypropylcellulose) (HPC)): 95 % of control
T/C [2]: 95 % of control and 103 % of control

CC(C)c1ccc2cc(C(C)C)ccc2c1
T/C [7]: 107 % of control
T/C [8]: 92 % of control
T/C [9]: 92 % of control

C=CCCC/C(C)=N/NS(=O)(=O)c1ccc(C)cc1
T/C (dose: 50.0 mg/kg/injection, schedule: Q01DX009 (ip), vehicle: saline with Tween-80): 112 % of control
T/C [7]: 92 % of control
T/C [8]: 106 % of control

O=S(=O)([O-])NC1CCCCC1.O=S(=O)([O-])NC1CCCCC1.[Hg+2].[Hg+2].[Hg+2].[O-2].[O-2]
T/C (dose: 0.5 mg/kg/injection, schedule: Q01DX009 (ip), vehicle: saline with Tween-80): 100 % of control
T/C (dose: 0.5 mg/kg/injection, schedule: Q04DX003 (ip), vehicle: saline sonified): 97 % of control
T/C (dose: 1.0 mg/kg/injection, schedule: Q01DX009 (ip), vehicle: saline with Tween-80): 94 % of control
T/C (dose: 1.0 mg/kg/injection, schedule: Q04DX003 (ip), vehicle: saline sonified): 101 % of control
T/C (dose: 2.0 mg/kg/injection, schedule: Q01DX009 (ip), vehicle: saline with Tween-80): 96 % of control
T/C (dose: 2.0 mg/kg/injection, schedule: Q04DX003 (ip), vehicle: saline sonified): 94 % of control
T/C (dose: 4.0 mg/kg/injection, schedule: Q01DX009 (ip), vehicle: saline with Tween-80): 93 % of control

CN1CCN(c2ccccc2)CC1
T/C (dose: 25.0 mg/kg/injection, schedule: Q01DX001 (ip), vehicle: saline with Tween-80): 168 % of control
T/C (dose: 50.0 mg/kg/injection, schedule: Q01DX001 (ip), vehicle: saline with Tween-80): 98 % of control
T/C (dose: 100.0 mg/kg/injection, schedule: Q01DX001 (ip), vehicle: saline with Tween-80): 196 % of control

CCCCn1cnc(=S)c2[nH]cnc21
T/C (dose: 50.0 mg/kg/injection, schedule: Q04DX003 (ip), vehicle: Klucel (hydroxypropylcellulose) (HPC)): 98 % of control
T/C [11]: 114 % of control
T/C (dose: 133.0 mg/kg/injection, schedule: Q04DX003 (ip), vehicle: Klucel (hydroxypropylcellulose) (HPC)): 118 % of control

COc1ccc(C[C@H]2NC[C@H](O)[C@H]2OC(C)=O)cc1
T/C (dose: 25.0 mg/kg/injection, schedule: Q01DX Z (ip), vehicle: saline): 109 % of control
T/C (dose: 50.0 mg/kg/injection, schedule: Q01DX Z (ip), vehicle: saline): 102 % of control
T/C (dose: 100.0 mg/kg/injection, schedule: Q01DX Z (ip), vehicle: saline): 109 % of control
T/C (dose: 200.0 mg/kg/injection, schedule: Q01DX Z (ip), vehicle: saline): 92 % of control and 107 % of control

Cc1ccc(NC(=O)OCC2CC3C=CC2C3)cc1 (configuration not stated)
T/C [10]: 98 % of control
T/C [12]: 102 % of control
T/C [14]: 100 % of control

NC1=NC(=O)/C(=C/c2ccccc2)S1
T/C [15]: 100 % of control
T/C [7]: 90 % of control
T/C [16]: 89 % of control
T/C [8]: 91 % of control
T/C (dose: 400.0 mg/kg/injection, schedule: Q01DX001 (ip), vehicle: carboxymethylcellulose (CMC)): 86 % of control

CC12C=CC3(CCC4C(C)(C)C(O[N+](=O)[O-])C(=O)CC4(C)C3CC1=O)C2 (configuration not stated)
T/C (dose: 75.0 mg/kg/injection, schedule: Q01DX009 (ip), vehicle: Klucel (hydroxypropylcellulose) (HPC)): 108 % of control
T/C [1]: 92 % of control
T/C (dose: 150.0 mg/kg/injection, schedule: Q01DX009 (ip), vehicle: Klucel (hydroxypropylcellulose) (HPC)): 100 % of control
T/C [3]: 95 % of control
T/C (dose: 300.0 mg/kg/injection, schedule: Q01DX009 (ip), vehicle: Klucel (hydroxypropylcellulose) (HPC)): 98 % of control
T/C [4]: 88 % of control

C=CCN(CCN(CC)CC)C(=O)C(O)(c1ccccc1)c1ccccc1
T/C [17]: 93 % of control
T/C [18]: 93 % of control
T/C [19]: 95 % of control

O=NN(CC(=O)O)c1ccc2ccccc2c1
T/C [17]: 90 % of control
T/C [18]: 90 % of control
T/C [19]: 93 % of control

Nc1ccc2c(c1)Cc1c(F)ccc(F)c1-2
T/C (dose: 50.0 mg/kg/injection, schedule: Q01DX001 (ip), vehicle: carboxymethylcellulose (CMC)): 107 % of control
T/C [15]: 102 % of control
T/C [16]: 109 % of control

CCc1csc(=S)[nH]1
T/C (dose: 50.0 mg/kg/injection, schedule: Q01DX009 (ip), vehicle: Klucel (hydroxypropylcellulose) (HPC)): 98 % of control
T/C [10]: 93 % of control
T/C [11]: 98 % of control
T/C [12]: 96 % of control
T/C [13]: 98 % of control
